Experiment in all cases: NCI tumour cell line growth inhibition, 48 h
The test system of assay [1] is HL-60(TB) leukemia.
Assay [2] has as its system HCC-2998 colon.
Assay [3] has as its system HOP-92 NSCLC.
Assay [4] concerns OVCAR-4 ovarian.
Assay [5] has as its system OVCAR-5 ovarian.
Assay [6] relates to OVCAR-8 ovarian.
The test system of assay [7] is SW-620 colon.
The subject of assay [8] is U251 CNS.

Where “and” joins values, the source holds several entries; their conditions need not be identical. Identical values can stand only once.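 Five concentrations, 48 hours, 96-well plates. GI50 marks 50% less growth. The concentration for full growth arrest is given as TGI.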

In the case of `FC(F)(F)c1cccc(-c2[nH]ncc2-c2nnnn2-c2ccccc2)c1`, the GI50 in assay [1] was 3940 nM; in assay [2], 2500 nM; in assay [4], 11700 nM; in assay [5], 10.6 µM; in assay [6] it was 7770 nM; in assay [7], 3230 nM. Besides, the GI50 in assay [8] was 4690 nM. For the same compound, the TGI turned out to be 8.86 µM in assay [1]; 11 µM in assay [2]; 8.19 µM in assay [3]; 28.8 µM in assay [4]; 31.2 µM in assay [5]; 90.2 µM in assay [6]. For the same compound, the TGI in assay [7] was 12.2 µM; in assay [8], 17.1 µM.
For `COc1ccc2c(c1)nnc1c3cccnc3[nH]c21`, the GI50 was 158 nM and 243 nM in assay [1]; 8230 nM and 10000 nM in assay [2]; 81.7 nM and 131 nM in assay [3]; 1410 nM and 2580 nM in assay [4]; 5.72 µM and 35.4 µM in assay [5]; 619 nM and 376 nM in assay [6]. Also, the GI50 in assay [7] is 378 nM and 978 nM; in assay [8] it was 929 nM and 987 nM. Besides, the TGI is 18.4 µM and 23.8 µM in assay [2]; 1.11 µM and 3.26 µM in assay [3]; 16.2 µM and > 100 µM in assay [4]; 20.2 µM and > 100 µM in assay [5]; 17.3 µM and 10.7 µM in assay [8].
Regarding `Cn1c(I)c(C#C[Si](C)(C)C)c(=O)[nH]c1=O`, the GI50 in assay [1] was 1900 nM; in assay [2], 2320 nM; in assay [3], 1080 nM; in assay [4], 1970 nM; in assay [5] it was 14.7 µM; in assay [6] it was 12100 nM. Moreover, the GI50 was 1710 nM in assay [7] and 12800 nM in assay [8]. Also, the TGI in assay [1] came out at 4.42 µM; in assay [2], 4.59 µM; in assay [3], 2.53 µM; in assay [4], 3.59 µM; in assay [5], 30.8 µM; in assay [6], 25.6 µM. The results for the TGI in assay [7] and in assay [8] were 3.23 µM and 25.5 µM, respectively.
`COC(=O)c1cc(-c2ccc(S(C)(=O)=O)cc2)[nH]c1N/N=C/c1c(Cl)cccc1Cl`: the GI50 is 570 nM in assay [1]; 987 nM in assay [2]; 845 nM in assay [3]; 1700 nM in assay [4]; 4.08 µM in assay [5]; 1270 nM in assay [6]. For the same compound, the GI50 in assay [7] was 362 nM; in assay [8], 489 nM. Moreover, the TGI in assay [1] is over 100 µM; in assay [2] it was 19.8 µM; in assay [3], over 28.2 µM; in assay [4], over 100 µM; in assay [5] it was over 100 µM; in assay [6] it was 98.1 µM. The TGI is over 100 µM in assay [7] and over 54.6 µM in assay [8].
As for `CSc1nc(SC)c2c(C)cn(COCCOC(=O)c3ccccc3)c2n1`, the TGI in assay [1] is over 100 µM; in assay [2], over 100 µM; in assay [3], 99.7 µM; in assay [4], over 100 µM; in assay [5], over 100 µM; in assay [6] it was over 100 µM. The TGI in assay [7] and in assay [8] was over 100 µM in each case.
Turning to `CCN1C(=O)N(CC)C2C1N=C(SC)N2/N=C/C=C/c1ccccc1OC` (stereo unspecified), the GI50 in assay [1] is 289 nM; in assay [2] it was 413 nM; in assay [3], 428 nM; in assay [4], 1550 nM; in assay [5], 0.63 µM; in assay [6], 438 nM. The GI50 is 412 nM in assay [7] and 411 nM in assay [8]. In addition, the TGI in assay [1] was 1.09 µM; in assay [2], over 41.1 µM; in assay [3] it was 7.31 µM; in assay [4], over 81.5 µM; in assay [5], over 54.4 µM; in assay [6] it was over 45 µM. The values for the TGI in assay [7] and in assay [8] were over 100 µM and over 33.1 µM, respectively.
Take `C[C@]12CCC(=O)C[C@@H]1CC[C@@H]1[C@@H]2CC[C@]2(C)[C@@H](OC(=O)N(CCCl)N=O)CC[C@@H]12`: the GI50 in assay [1] is 259 nM; in assay [2], 933 nM; in assay [3], 179 nM; in assay [4] it was 11500 nM; in assay [5], 6.31 µM; in assay [6] it was 1360 nM. In addition, the GI50 in assay [7] is 1110 nM; in assay [8] it was 394 nM. The TGI is over 33 µM in assay [1]; 7.95 µM in assay [2]; 11.1 µM in assay [3]; 29.7 µM in assay [4]; 22.4 µM in assay [5]; 24 µM in assay [6]. In addition, the results for the TGI in assay [7] and in assay [8] were 19 µM and 14 µM, respectively.
For the compound `CN(C)c1ccc2[nH]c3c(C(N)=O)cc(=O)c(=O)c=3oc2c1`, the GI50 was 668 nM in assay [1]; 4900 nM in assay [2]; 1720 nM in assay [3]; 1670 nM in assay [4]; 3.36 µM in assay [5]; 1050 nM in assay [6]. In addition, the values for the GI50 in assay [7] and in assay [8] were 2020 nM and 1800 nM, respectively. In addition, the TGI is 4.04 µM in assay [1]; over 100 µM in assay [2]; 8.58 µM in assay [3]; 6.42 µM in assay [4]; 17.2 µM in assay [5]; over 100 µM in assay [6]. For the same compound, the results for the TGI in assay [7] and in assay [8] were over 100 µM and 9.8 µM, respectively.
Regarding `CNC(=O)c1cc(Oc2ccc(NC(=O)Nc3cc(C(C)(C)C)nn3-c3ccc4ncccc4c3)c(F)c2)ccn1`, the GI50 in assay [1] is 3330 nM and 2530 nM; in assay [2], 3210 nM and 3380 nM; in assay [3], 460 nM and 446 nM; in assay [4], 2380 nM and 2490 nM; in assay [5], 2.1 µM and 3.34 µM; in assay [6], 2240 nM and 1990 nM. The GI50 is 3510 nM and 3160 nM in assay [7]; 2720 nM and 2330 nM in assay [8]. In addition, the TGI in assay [1] was 6.57 µM and 5.8 µM; in assay [2] it was 7.82 µM and 7.78 µM; in assay [3] it was 4.85 µM and 4.6 µM; in assay [4], 7.74 µM and 14.5 µM; in assay [6], 7.82 µM and 6.84 µM; in assay [7] it was over 29.6 µM. Further, in assay [8], the TGI was 8.87 µM and 7.22 µM.

For the origin of these results see PubChem BioAssay (NCI).
